The subject of test [1] is 5-HT3 receptors (mice striatum). Briefly: turning test in mice. The format is in vivo. Conditions: for turning behaviour after injection into the mice striatum: intrastriatal injection, inhibited by 5-HT3 receptor antagonists. The source says: CM 57227 was also studied in the "turning" test carried out as described by P. Worms et al. in Life Sciences, 1986, 39, 2199-2208.

Test [2] has as its target T1, 5-HT3 receptors (Rattus norvegicus, UniProt P35563).
T1 sequence (P35563 24-483): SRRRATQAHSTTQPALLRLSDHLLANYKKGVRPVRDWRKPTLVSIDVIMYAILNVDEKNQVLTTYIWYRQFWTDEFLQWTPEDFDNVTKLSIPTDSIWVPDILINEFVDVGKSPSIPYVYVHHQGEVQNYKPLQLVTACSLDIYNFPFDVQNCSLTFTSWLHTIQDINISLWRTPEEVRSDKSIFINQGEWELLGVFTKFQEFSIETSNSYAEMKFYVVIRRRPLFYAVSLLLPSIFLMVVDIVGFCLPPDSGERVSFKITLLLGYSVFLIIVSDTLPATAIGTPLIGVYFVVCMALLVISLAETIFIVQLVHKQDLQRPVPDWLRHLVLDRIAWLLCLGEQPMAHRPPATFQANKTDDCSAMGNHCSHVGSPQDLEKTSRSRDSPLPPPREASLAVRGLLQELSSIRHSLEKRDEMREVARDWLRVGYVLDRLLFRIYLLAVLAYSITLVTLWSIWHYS
Briefly: biochemical. In kind it is binding. The arrangement: the cortical tissue from 4 animals was homogenized in 20 volumes of HEPES; from tissue; host or cells: cerebral cortical membranes of male rats (about 200 g).
Procedure: The potency of the compounds of formula (I') in displacing [^3 H]
For the preparation of cerebral membranes, male rats weighing about 200 g and sacrificed by decapitation were employed. […] In summary, the cortical tissue from 4 animals was homogenized in 20 volumes of HEPES and kept at 4° C. until used in the binding assays.

Test [3] has as its target T1, 5-HT3 receptors. The test is described as follows: Bezold-Jarish test in the anaesthetised rat (reduction of heart rate). The format is in vivo. The arrangement: evokes in the anaesthetised rat, a short-lived reduction of heart rate (Bezold-Jarish effect); from tissue; host or cells: whole animal: urethane-anaesthetised Sprague-Dawley rat. Conditions: for ED50: rat, read-out: ID50 i.v. (dose which inhibits by 50% the heart rate); for inhibition of the Bezold-Jarish effect evoked by compounds of formula (I'): anaesthetised rat. As for the experimental part: Selective 5-HT3 agonist activity of the compounds of formula (I') was confirmed in vivo in the Bezold-Jarish test. In this test, intravenous administration of the compounds of formula (I') evokes in the anaesthetised rat, a short-lived reduction of heart rate (Bezold-Jarish effect).
More particularly, the Bezold-Jarish effect evoked by the compounds of formula (I') was evaluated using Sprague-Dawley rats weighing from 200 to 300 g, anaesthetised with urethane 1.25 g/kg i.p. The blood pressure was recorded from the carotid artery and heart rate was evaluated, as pulse frequency, by means of a cardiotachometer. A catheter was inserted into the jugular vein for the administration of the substances.

Test [4] concerns the target T2, 5-HT1A receptors (Homo sapiens, UniProt P08908).
T2 sequence (P08908 1-422): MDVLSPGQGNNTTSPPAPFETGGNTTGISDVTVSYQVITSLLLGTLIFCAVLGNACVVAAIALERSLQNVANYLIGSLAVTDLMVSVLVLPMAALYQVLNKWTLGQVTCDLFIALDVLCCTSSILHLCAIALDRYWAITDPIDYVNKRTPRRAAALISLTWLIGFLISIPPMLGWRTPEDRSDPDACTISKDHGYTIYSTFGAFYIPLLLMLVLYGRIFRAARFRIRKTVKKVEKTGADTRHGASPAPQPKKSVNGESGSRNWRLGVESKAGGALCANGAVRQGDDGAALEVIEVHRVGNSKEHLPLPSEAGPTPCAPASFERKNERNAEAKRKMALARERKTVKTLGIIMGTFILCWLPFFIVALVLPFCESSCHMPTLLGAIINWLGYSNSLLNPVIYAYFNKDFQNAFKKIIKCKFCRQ
Briefly: displacement of labelled specific ligand from 5-HT1A receptors. In kind it is binding. Conditions: no affinity. The source says:
(§1) This affinity for 5-HT3 receptors is also selective.

The target in test [5] is 5-HT1B receptors (Rattus norvegicus, UniProt P28564). The test is described as follows: displacement of labelled specific ligand from 5-HT1B receptors. The format is binding. Conditions: no affinity.
From the text: as §1

The target in test [6] is serotonin uptake sites (Homo sapiens, UniProt P31645). Briefly: [3H] paroxetine displacement test. The format is binding.
From the text: as §1

Test [7] deals with adrenergic sites α2. Briefly: displacement of labelled specific ligand from adrenergic sites α2. In kind it is binding. Conditions: no affinity.
From the text: as §1

Test [8] addresses adrenergic sites α1. The test is described as follows: displacement of labelled specific ligand from adrenergic sites α1. The format is binding. Conditions: no affinity.
From the text: as §1

Test [9] has as its target adrenergic sites β1 (Homo sapiens, UniProt P08588). Briefly: displacement of labelled specific ligand from adrenergic sites β1. The format is binding. Conditions: no affinity.
From the text: as §1

Test [10] deals with dopaminergic sites D1 (Homo sapiens, UniProt P21728). The test is described as follows: displacement of labelled specific ligand from dopaminergic sites D1. The format is binding. Conditions: no affinity.
From the text: as §1

Test [11] has as its target dopaminergic sites D2 (Homo sapiens, UniProt P14416). The test is described as follows: displacement of labelled specific ligand from dopaminergic sites D2. The format is binding. Conditions: no affinity.
From the text: as §1

For test [12], the target named is T3, central 5-HT3 receptors (Mus musculus, UniProt P23979).
T3 construct: from tissue; host or cells: cortical cerebral membranes of mice dosed intraperitoneally
The test is described as follows: ex vivo inhibition of [3H] BRL 43694 specific binding to cortical cerebral membranes in mice.

Test [13] has as its system 5-HT3 receptors. Briefly: fecal excretion in rats (intestinal prokinetic activity). In kind it is in vivo. As for the experimental part: Said activity was investigated by means of a test aimed at evaluating fecal excretion in rats. […] The compounds of formula (I') to be tested were administered subcutaneously. The treatment schedule provided for 8 animals in each group. At the time of drug treatment, the rectal lumen was manually emptied from any residual feces and the animals were then placed again into their cages. 90 Minutes after the treatment the fecal pellets were collected, their number was determined and their wet weight measured. They were then put in the oven and dried for 10 hours at 40° C. for the determination of the dry weight. The parameter used to evaluate the activity of the test compounds was the dry weight (in grams) of the feces excreted during the 90 minutes following the subcutaneous administration of the test compound.

Read-outs that look alike come from different tables or passages of the source.

T3 sequence (P23979 24-489): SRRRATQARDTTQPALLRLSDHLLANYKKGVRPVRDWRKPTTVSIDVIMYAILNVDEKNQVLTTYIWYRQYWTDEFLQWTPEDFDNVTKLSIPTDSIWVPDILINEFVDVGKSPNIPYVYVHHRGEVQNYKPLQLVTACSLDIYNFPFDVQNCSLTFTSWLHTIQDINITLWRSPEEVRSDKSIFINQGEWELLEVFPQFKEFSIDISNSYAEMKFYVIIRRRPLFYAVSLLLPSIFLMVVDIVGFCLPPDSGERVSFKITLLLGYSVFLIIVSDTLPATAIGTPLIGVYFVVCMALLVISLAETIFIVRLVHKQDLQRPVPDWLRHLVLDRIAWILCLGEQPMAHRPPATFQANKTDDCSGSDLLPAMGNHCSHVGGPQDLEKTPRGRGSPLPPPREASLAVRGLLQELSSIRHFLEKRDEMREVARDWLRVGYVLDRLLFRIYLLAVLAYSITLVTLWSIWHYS
Sequence of serotonin uptake sites (P31645 whole entry): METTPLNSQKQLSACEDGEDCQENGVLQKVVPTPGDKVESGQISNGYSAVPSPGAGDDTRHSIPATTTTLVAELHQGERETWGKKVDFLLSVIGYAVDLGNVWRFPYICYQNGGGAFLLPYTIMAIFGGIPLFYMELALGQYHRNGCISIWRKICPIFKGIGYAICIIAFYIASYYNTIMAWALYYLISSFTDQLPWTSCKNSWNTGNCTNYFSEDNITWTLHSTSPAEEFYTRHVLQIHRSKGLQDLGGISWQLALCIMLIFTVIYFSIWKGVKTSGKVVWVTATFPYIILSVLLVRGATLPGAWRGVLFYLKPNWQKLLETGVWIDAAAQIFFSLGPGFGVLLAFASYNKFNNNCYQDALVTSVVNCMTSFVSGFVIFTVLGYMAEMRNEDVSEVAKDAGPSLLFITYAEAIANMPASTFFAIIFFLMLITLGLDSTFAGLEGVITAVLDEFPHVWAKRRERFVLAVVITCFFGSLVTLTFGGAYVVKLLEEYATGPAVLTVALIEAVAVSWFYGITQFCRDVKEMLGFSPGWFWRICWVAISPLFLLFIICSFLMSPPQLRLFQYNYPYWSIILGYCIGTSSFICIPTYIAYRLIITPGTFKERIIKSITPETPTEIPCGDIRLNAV
Sequence of dopaminergic sites D1 (P21728 whole entry): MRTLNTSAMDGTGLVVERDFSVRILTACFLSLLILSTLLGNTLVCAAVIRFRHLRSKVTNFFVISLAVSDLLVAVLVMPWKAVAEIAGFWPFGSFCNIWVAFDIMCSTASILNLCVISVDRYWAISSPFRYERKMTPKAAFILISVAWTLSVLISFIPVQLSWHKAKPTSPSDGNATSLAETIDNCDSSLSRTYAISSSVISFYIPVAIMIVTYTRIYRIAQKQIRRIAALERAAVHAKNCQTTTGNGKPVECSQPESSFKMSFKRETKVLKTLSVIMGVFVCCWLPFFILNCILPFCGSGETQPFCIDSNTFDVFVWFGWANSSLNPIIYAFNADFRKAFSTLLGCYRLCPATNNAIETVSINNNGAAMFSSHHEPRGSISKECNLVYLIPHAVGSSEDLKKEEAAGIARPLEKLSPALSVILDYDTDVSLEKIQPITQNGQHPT
Sequence of adrenergic sites β1 (P08588 whole entry): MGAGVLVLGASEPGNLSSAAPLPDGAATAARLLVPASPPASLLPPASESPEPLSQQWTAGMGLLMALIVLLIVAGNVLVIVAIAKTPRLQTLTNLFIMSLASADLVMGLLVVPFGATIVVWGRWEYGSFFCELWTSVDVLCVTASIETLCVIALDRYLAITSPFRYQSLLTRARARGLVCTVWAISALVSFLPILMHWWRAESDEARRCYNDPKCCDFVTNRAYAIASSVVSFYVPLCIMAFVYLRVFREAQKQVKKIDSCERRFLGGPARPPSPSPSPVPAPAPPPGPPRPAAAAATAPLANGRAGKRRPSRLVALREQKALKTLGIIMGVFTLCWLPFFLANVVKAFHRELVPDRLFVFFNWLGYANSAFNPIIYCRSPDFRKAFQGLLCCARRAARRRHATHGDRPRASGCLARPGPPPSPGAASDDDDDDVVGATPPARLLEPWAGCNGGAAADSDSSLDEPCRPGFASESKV
Sequence of 5-HT1B receptors (P28564 whole entry): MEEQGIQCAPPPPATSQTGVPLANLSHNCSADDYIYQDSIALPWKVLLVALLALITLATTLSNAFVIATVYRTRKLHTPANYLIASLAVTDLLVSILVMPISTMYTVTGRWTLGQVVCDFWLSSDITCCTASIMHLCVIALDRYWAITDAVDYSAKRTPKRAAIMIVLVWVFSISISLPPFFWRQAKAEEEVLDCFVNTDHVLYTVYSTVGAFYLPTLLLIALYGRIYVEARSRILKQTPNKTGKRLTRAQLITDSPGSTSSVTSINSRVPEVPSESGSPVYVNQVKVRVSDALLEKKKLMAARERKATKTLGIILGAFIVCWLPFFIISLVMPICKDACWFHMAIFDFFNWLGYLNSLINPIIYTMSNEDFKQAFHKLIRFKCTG
Sequence of dopaminergic sites D2 (P14416 whole entry): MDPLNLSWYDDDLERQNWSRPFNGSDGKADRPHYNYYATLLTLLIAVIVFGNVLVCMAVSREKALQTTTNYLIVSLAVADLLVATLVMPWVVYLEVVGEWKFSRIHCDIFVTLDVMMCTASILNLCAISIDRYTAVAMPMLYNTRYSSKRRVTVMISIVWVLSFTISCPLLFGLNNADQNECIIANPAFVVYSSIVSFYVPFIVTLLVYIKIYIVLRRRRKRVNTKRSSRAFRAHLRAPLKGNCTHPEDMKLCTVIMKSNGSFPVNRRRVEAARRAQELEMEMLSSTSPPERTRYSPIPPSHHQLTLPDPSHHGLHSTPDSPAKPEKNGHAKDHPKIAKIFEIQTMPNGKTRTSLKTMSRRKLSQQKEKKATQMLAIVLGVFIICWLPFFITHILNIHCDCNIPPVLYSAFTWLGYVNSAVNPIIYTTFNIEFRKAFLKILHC

`Cc1[nH]c2ccc(O)cc2c1CCN` [2-methylserotonin, reference compound]: in [1], the “turning behaviour after injection into the mice striatum” value is “evokes a turning behaviour”. The affinity in [2], expressed as Ki, was 1.11 µM. In addition, the ED50 in test [3] (anaesthetised Sprague-Dawley rats, intravenous) was 0.005 mg/kg.

As for `Cl.NC1CCN(c2cccc(Cl)n2)CC1` [CM 57227, 4-amino-1-(6-chloro-2-pyridyl)piperidine hydrochloride], the Ki in test [4], in test [5], in test [6], in [7], in test [8] and in test [9] was over 10 µM in each case. The Ki in test [10] was over 10 µM; in [11] it was over 10 µM; in test [2] (0.5 nM [3H] BRL 43694, 30 minutes at 25° C., rat cortical membranes, read-out: Ki, displacement of [3H] BRL 43694), 0.193 µM. The “ID50 p.o., extrapolated to zero dilution” value in [12] (mice, oral administration, compared with ID50 i.p. of 1 mg/kg) was “of the same magnitude order”. The ED50 in [12] (mouse, ip, 0.5 h, read-out: ID50 i.p., extrapolated to zero dilution (dose inhibiting by 50% [3H] BRL 43694 binding), mice, 30 minutes after i.p. administration) is 1 mg/kg; in test [1] (Mus musculus, ip, mice, test compound i.p., ondansetron 1 mg/kg i.p., intrastriatal 2-methylserotonin, read-out: ED50, blockade of ondansetron antagonism of 2-methylserotonin-induced turning behaviour) it was 0.25 mg/kg; in test [3] (iv), 0.00829 mg/kg. Also, in test [12] (same experimental conditions), the “ID50 for [3H] BRL 43694 binding compared with ID50 for [3H] paroxetine (serotonin uptake sites)” value is given as “markedly lower”. The “turning behaviour after injection into the mice striatum” value in test [1] was “evokes a turning behaviour”. Also, in test [13] (2.5 mg/kg s.c.), the “dry weight of feces excreted during 90 minutes” value is “about 1.3 g”.

For the molecule `CN1C2CCC1CC(OC(=O)c1c[nH]c3ccccc13)C2` (stereo not shown) [ICS 205-930], the “antagonism of the fecal excretion stimulating activity of compounds of formula (I')” value in [13] is on record as “antagonised”. Besides, in [3], the “inhibition of the Bezold-Jarish effect evoked by compounds of formula (I')” value (shortened to “inhibition”) is reported as “inhibited”.

On to `CC[C@@H](CO)NC(=O)[C@@H]1C=C2c3cccc4c3c(cn4C)C[C@H]2N(C)C1` [methysergide], for which the “inhibition” value in test [3] was “not inhibited”.

In the case of `NCCc1c[nH]c2ccc(O)cc12` [serotonin], in test [3] (iv), the ED50 was 0.0136 mg/kg.

For `COc1cc(N)c(Cl)cc1C(=O)NC1CN2CCC1CC2` (stereo not shown) [zacopride], the “antagonism of the fecal excretion stimulating activity of compounds of formula (I')” value in [13] is “antagonised”. Besides, the “inhibition” value in test [3] is “inhibited”.

As a reminder, the Ki is a measure of affinity in units of concentration, obtained from inhibition or displacement.

These data come from patent US5604245A, “Use of 4-amino-1-(2-pyridyl)piperidines for the preparation of a medicament for the treatment of conditions deriving from disorders of the serotoninergic systems mediated by 5-HT3 receptors” (priority 1991, dated 1997).
